Data published in the supplement of paper PMC10883282.
Where a name gives a salt, the structure may show the parent alone. ± gives the standard deviation of the averaged measurements.

Test system: HT1080
Assay: relative viability vs DMSO control (72 h) (fraction); higher = more viable cells
In short: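 Sarcoma cell lines were seeded in 384-well plates at densities chosen for 80–90% confluence, then 24 h later given 2.5 µl of serially diluted compound drawn from source plates spanning 10 mM to 0.0002 mM. They were held 72 h at 37 °C, 5% CO2, with 0.1% DMSO vehicle and a 5 µM positive control included. Relative viability was read with ATPLite as percent growth and averaged over up to triplicate wells. Rescaling placed full at 1 and none at 0.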

Nc1cc(C(F)(F)F)c(-c2cc(N3CCOCC3)nc(N3CCOCC3)n2)cn1 [Buparlisib]
relative viability (0.00017 µM): 1.01 ± 0.077 | relative viability (0.00051 µM): 1.02 ± 0.024 | relative viability (0.00152 µM): 1.018 ± 0.0073 | relative viability (0.00457 µM): 1.05 ± 0.036 | relative viability (0.01372 µM): 1.04 ± 0.015 | relative viability (0.04115 µM): 1.03 ± 0.022 | relative viability (0.1235 µM): 1.03 ± 0.039 | relative viability (0.3704 µM): 1.07 ± 0.013 | relative viability (1.111 µM): 1 ± 0.013 | relative viability (3.333 µM): 0.11 ± 0.0037 | relative viability (10 µM): 0.0244 ± 0.0015

CC(C)NC(=O)C1CCC(n2c(NC(=O)c3ccc(F)cc3)nc3ccc(CN4CCC(C(C)(C)O)CC4)cc32)CC1 (stereo not given) [Belizatinib]
relative viability (0.00017 µM): 1.079 ± 0.0088 | relative viability (0.00051 µM): 1.09 ± 0.036 | relative viability (0.00152 µM): 1.05 ± 0.018 | relative viability (0.00457 µM): 1.08 ± 0.057 | relative viability (0.01372 µM): 1.07 ± 0.052 | relative viability (0.04115 µM): 1.08 ± 0.021 | relative viability (0.1235 µM): 1.062 ± 0.0014 | relative viability (0.3704 µM): 1.06 ± 0.069 | relative viability (1.111 µM): 1.03 ± 0.056 | relative viability (3.333 µM): 0.866 ± 0.014 | relative viability (10 µM): 0.4946 ± 0.0036

CC1(C)CNc2cc(NC(=O)c3cccnc3NCc3ccncc3)ccc21 [Motesanib]
relative viability (0.00017 µM): 1.03 ± 0.036 | relative viability (0.00051 µM): 0.975 ± 0.032 | relative viability (0.00152 µM): 1.03 ± 0.016 | relative viability (0.00457 µM): 1.03 ± 0.023 | relative viability (0.01372 µM): 1.04 ± 0.041 | relative viability (0.04115 µM): 1 ± 0.04 | relative viability (0.1235 µM): 1.02 ± 0.0035 | relative viability (0.3704 µM): 0.98 ± 0.012 | relative viability (1.111 µM): 1.01 ± 0.018 | relative viability (3.333 µM): 0.9961 ± 0.0086 | relative viability (10 µM): 0.976 ± 0.015

CC(=O)Nc1cccc(-n2c(=O)n(C3CC3)c(=O)c3c(Nc4ccc(I)cc4F)n(C)c(=O)c(C)c32)c1 [Trametinib]
relative viability (0.00017 µM): 1.1 ± 0.022 | relative viability (0.00051 µM): 1.119 ± 0.0055 | relative viability (0.00152 µM): 1.039 ± 0.0014 | relative viability (0.00457 µM): 0.981 ± 0.041 | relative viability (0.01372 µM): 0.638 ± 0.029 | relative viability (0.04115 µM): 0.537 ± 0.017 | relative viability (0.1235 µM): 0.478 ± 0.032 | relative viability (0.3704 µM): 0.377 ± 0.011 | relative viability (1.111 µM): 0.351 ± 0.02 | relative viability (3.333 µM): 0.334 ± 0.018 | relative viability (10 µM): 0.296 ± 0.014

COc1cc2c(cc1O)CCN[C@]21CS[C@@H]2c3c(OC(C)=O)c(C)c4c(c3[C@H](COC1=O)N1[C@@H]2[C@H]2c3c(cc(C)c(OC)c3O)C[C@@H]([C@@H]1O)N2C)OCO4 [Trabectedin]
relative viability (2 pM): 1.13 ± 0.038 | relative viability (5 pM): 1.12 ± 0.048 | relative viability (15 pM): 1.09 ± 0.047 | relative viability (50 pM): 1.094 ± 0.0095 | relative viability (0.00014 µM): 1.11 ± 0.031 | relative viability (0.00041 µM): 1.077 ± 0.0069 | relative viability (0.0012 µM): 0.023 ± 0.0022 | relative viability (0.0037 µM): 0.21 ± 0.0023 | relative viability (0.011 µM): 0.159 ± 0.005 | relative viability (200 fM): 1.08 ± 0.032 | relative viability (600 fM): 1.14 ± 0.017

CN1CCN(c2ccc3nc(-c4c(N)c5c(F)cccc5[nH]c4=O)[nH]c3c2)CC1 [Dovitinib]
relative viability (0.00017 µM): 1.1 ± 0.047 | relative viability (0.00051 µM): 1.09 ± 0.053 | relative viability (0.00152 µM): 1.05 ± 0.046 | relative viability (0.00457 µM): 1.1 ± 0.028 | relative viability (0.01372 µM): 1.09 ± 0.013 | relative viability (0.04115 µM): 1.095 ± 0.0071 | relative viability (0.1235 µM): 1.11 ± 0.023 | relative viability (0.3704 µM): 1.155 ± 0.0091 | relative viability (1.111 µM): 0.975 ± 0.017 | relative viability (3.333 µM): 0.632 ± 0.023 | relative viability (10 µM): 0.154 ± 0.08

C[C@@H]1COCCN1c1cc(-c2ccnn2C)c2ccnc(-c3ccn[nH]3)c2n1
relative viability (0.00017 µM): 1.044 ± 0.0047 | relative viability (0.00051 µM): 1.03 ± 0.014 | relative viability (0.00152 µM): 1.024 ± 0.0029 | relative viability (0.00457 µM): 1.02 ± 0.025 | relative viability (0.01372 µM): 0.998 ± 0.035 | relative viability (0.04115 µM): 0.954 ± 0.017 | relative viability (0.1235 µM): 0.735 ± 0.037 | relative viability (0.3704 µM): 0.28 ± 0.0093 | relative viability (1.111 µM): 0.191 ± 0.0041 | relative viability (3.333 µM): 0.16 ± 0.0093 | relative viability (10 µM): 0.1555 ± 0.00028

Cn1cc(-c2cc3c(N4CCN(c5ncc([C@@](C)(N)c6ccc(F)cc6)cn5)CC4)ncnn3c2)cn1 [Avapritinib]
relative viability (0.00017 µM): 0.967 ± 0.065 | relative viability (0.00051 µM): 1.03 ± 0.019 | relative viability (0.00152 µM): 0.98 ± 0.042 | relative viability (0.00457 µM): 1.01 ± 0.041 | relative viability (0.01372 µM): 1 ± 0.017 | relative viability (0.04115 µM): 1.01 ± 0.039 | relative viability (0.1235 µM): 1.03 ± 0.048 | relative viability (0.3704 µM): 1.01 ± 0.013 | relative viability (1.111 µM): 0.908 ± 0.029 | relative viability (3.333 µM): 0.905 ± 0.014 | relative viability (10 µM): 0.826 ± 0.023

C[C@]1(O)C[C@@H](c2nc(-c3ccc4ccc(-c5ccccc5)nc4c3)c3c(N)nccn32)C1 [Linsitinib]
relative viability (0.00017 µM): 1.044 ± 0.0049 | relative viability (0.00051 µM): 1.09 ± 0.025 | relative viability (0.00152 µM): 1.045 ± 0.0029 | relative viability (0.00457 µM): 1.057 ± 0.009 | relative viability (0.01372 µM): 1.04 ± 0.047 | relative viability (0.04115 µM): 1.03 ± 0.018 | relative viability (0.1235 µM): 1.03 ± 0.023 | relative viability (0.3704 µM): 0.988 ± 0.025 | relative viability (1.111 µM): 0.968 ± 0.043 | relative viability (3.333 µM): 0.968 ± 0.025 | relative viability (10 µM): 0.881 ± 0.017

Cc1nc(NC(=O)N2CCC[C@H]2C(N)=O)sc1-c1ccnc(C(C)(C)C(F)(F)F)c1 [Alpelisib]
relative viability (0.00017 µM): 1.06 ± 0.032 | relative viability (0.00051 µM): 1.05 ± 0.027 | relative viability (0.00152 µM): 1.05 ± 0.022 | relative viability (0.00457 µM): 1.08 ± 0.031 | relative viability (0.01372 µM): 1.01 ± 0.014 | relative viability (0.04115 µM): 1.04 ± 0.018 | relative viability (0.1235 µM): 1 ± 0.023 | relative viability (0.3704 µM): 1.02 ± 0.037 | relative viability (1.111 µM): 0.994 ± 0.03 | relative viability (3.333 µM): 0.977 ± 0.034 | relative viability (10 µM): 0.889 ± 0.016

COc1cccc2c1C(=O)c1c(O)c3c(c(O)c1C2=O)C[C@@](O)(C(=O)CO)C[C@@H]3O[C@H]1C[C@H](N)[C@H](O)[C@H](C)O1 [Doxorubicin Hydrochloride]
relative viability (0.00017 µM): 1.09 ± 0.015 | relative viability (0.00051 µM): 1.071 ± 0.0078 | relative viability (0.00152 µM): 1.04 ± 0.025 | relative viability (0.00457 µM): 1.05 ± 0.024 | relative viability (0.01372 µM): 0.97 ± 0.028 | relative viability (0.04115 µM): 0.707 ± 0.01 | relative viability (0.1235 µM): 0.5504 ± 0.0046 | relative viability (0.3704 µM): 0.117 ± 0.0055 | relative viability (1.111 µM): 0.105 ± 0.0013 | relative viability (3.333 µM): 0.183 ± 0.0044 | relative viability (10 µM): 0.115 ± 0.0043

CNC(=O)c1ccc(-c2cnc3ncc(Cc4ccc5ncccc5c4)n3n2)cc1F [Capmatinib]
relative viability (0.00017 µM): 1.06 ± 0.022 | relative viability (0.00051 µM): 1.06 ± 0.041 | relative viability (0.00152 µM): 1.06 ± 0.018 | relative viability (0.00457 µM): 1.06 ± 0.014 | relative viability (0.01372 µM): 1.06 ± 0.012 | relative viability (0.04115 µM): 1.04 ± 0.019 | relative viability (0.1235 µM): 1.05 ± 0.014 | relative viability (0.3704 µM): 1.05 ± 0.028 | relative viability (1.111 µM): 1.044 ± 0.01 | relative viability (3.333 µM): 0.989 ± 0.015 | relative viability (10 µM): 1.005 ± 0.0012

Cc1ccc(NC(=O)c2ccc(CN3CCN(C)CC3)cc2)cc1Nc1nc(-c2cccnc2)cs1 [Masitinib]
relative viability (0.00017 µM): 1.02 ± 0.029 | relative viability (0.00051 µM): 1.06 ± 0.022 | relative viability (0.00152 µM): 1.06 ± 0.0062 | relative viability (0.00457 µM): 1.08 ± 0.033 | relative viability (0.01372 µM): 1.05 ± 0.019 | relative viability (0.04115 µM): 1.06 ± 0.021 | relative viability (0.1235 µM): 1.03 ± 0.032 | relative viability (0.3704 µM): 1.02 ± 0.044 | relative viability (1.111 µM): 0.89 ± 0.02 | relative viability (3.333 µM): 0.642 ± 0.06 | relative viability (10 µM): 0.177 ± 0.012

C[C@@H](c1ccc2nccn2c1)n1nnc2ncc(-c3cnn(C)c3)nc21 [Volitinib]
relative viability (0.00017 µM): 1.02 ± 0.043 | relative viability (0.00051 µM): 1.06 ± 0.016 | relative viability (0.00152 µM): 1.07 ± 0.02 | relative viability (0.00457 µM): 1.06 ± 0.031 | relative viability (0.01372 µM): 1.06 ± 0.029 | relative viability (0.04115 µM): 1.04 ± 0.011 | relative viability (0.1235 µM): 1.02 ± 0.022 | relative viability (0.3704 µM): 1.05 ± 0.034 | relative viability (1.111 µM): 1.06 ± 0.012 | relative viability (3.333 µM): 0.992 ± 0.016 | relative viability (10 µM): 0.948 ± 0.053

CC(C)(C)c1cc(NC(=O)Nc2ccc(-c3cn4c(n3)sc3cc(OCCN5CCOCC5)ccc34)cc2)no1 [Quizartinib]
relative viability (0.00017 µM): 1.12 ± 0.013 | relative viability (0.00051 µM): 1.09 ± 0.016 | relative viability (0.00152 µM): 1.087 ± 0.0076 | relative viability (0.00457 µM): 1.08 ± 0.029 | relative viability (0.01372 µM): 1.07 ± 0.014 | relative viability (0.04115 µM): 1.11 ± 0.034 | relative viability (0.1235 µM): 1.1 ± 0.035 | relative viability (0.3704 µM): 1.11 ± 0.012 | relative viability (1.111 µM): 1.04 ± 0.042 | relative viability (3.333 µM): 0.907 ± 0.048 | relative viability (10 µM): 0.806 ± 0.042
